Laboratory results published in the supplement of paper PMC4862054.

Legend:
Settings in all cases: incubation time: 72 h
MDA-MB-436 [1] = assay: normalised response (% of control), CellTiter-Glo; higher = more viable cells (100 = DMSO, 0 = benzethonium chloride kill control)
Summary of the method: (§1)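 After 72 h with compound in 384-well plates, breast cancer cell lines seeded as 20 µl suspension were read for CellTox Green fluorescence at 485/520 nm. CellTiter-Glo luminescence was then read after 10 min at room temperature. Compound was present at 5 concentrations in 10-fold steps over a 10,000-fold range set per compound, and plates were normalised to 0.1 % DMSO (100) and a positive kill control (0). Values are normalised signals, each at a single concentration.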

CAL-51 [2] = assay: as above
Summary of the method: as §1

SK-BR-3 [3] = assay: as above
Summary of the method: as §1

HDQ-P1 [4] = assay: as above
Summary of the method: as §1

HCC1143 [5] = assay: as above
Summary of the method: as §1

MFM-223 [6] = assay: as above
Summary of the method: as §1

Hs578T [7] = assay: as above
Summary of the method: as §1

BT-474 [8] = assay: as above
Summary of the method: as §1

CAL-120 [9] = assay: as above
Summary of the method: as §1

CAL-85-1 [10] = assay: as above
Summary of the method: as §1

CAL-148 [11] = assay: as above
Summary of the method: as §1

DU-4475 [12] = assay: as above
Summary of the method: as §1

MDA-MB-468 [13] = assay: as above
Summary of the method: as §1

MCF-10A = assay: as above
Summary of the method: as §1

BT-549 [14] = assay: as above
Summary of the method: as §1

HCC1937 [15] = assay: as above
Summary of the method: as §1

MDA-MB-231 [16] = assay: as above
Summary of the method: as §1

MDA-MB-453 [17] = assay: as above
Summary of the method: as §1

HCC1599 [18] = assay: as above
Summary of the method: as §1

MDA-MB-436 [19] = assay: normalised viability (% of control), CellTiter-Blue; higher = more viable cells (100 = DMSO, 0 = benzethonium chloride kill control)
Summary of the method: (§2)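 Each entry is normalised viability at a single listed concentration within a series. It comes from breast cancer cell lines incubated 72 h with compound in 384-well plates, then measured with CellTiter-Blue fluorescence at 560/590 nm. Every plate was normalised between vehicle (100) and a positive kill control (0).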

CAL-51 [20] = assay: as above
Summary of the method: as §2

SK-BR-3 [21] = assay: as above
Summary of the method: as §2

HDQ-P1 [22] = assay: as above
Summary of the method: as §2

HCC1143 [23] = assay: as above
Summary of the method: as §2

MFM-223 [24] = assay: as above
Summary of the method: as §2

Hs578T [25] = assay: as above
Summary of the method: as §2

BT-474 [26] = assay: as above
Summary of the method: as §2

CAL-120 [27] = assay: as above
Summary of the method: as §2

CAL-85-1 [28] = assay: as above
Summary of the method: as §2

CAL-148 [29] = assay: as above
Summary of the method: as §2

DU-4475 [30] = assay: as above
Summary of the method: as §2

MDA-MB-468 [31] = assay: as above
Summary of the method: as §2

BT-549 [32] = assay: as above
Summary of the method: as §2

HCC1937 [33] = assay: as above
Summary of the method: as §2

MDA-MB-231 [34] = assay: as above
Summary of the method: as §2

MDA-MB-453 [35] = assay: as above
Summary of the method: as §2

HCC1599 [36] = assay: as above
Summary of the method: as §2

Structure (SMILES) | normalised response (MDA-MB-436 [1]) | normalised response (CAL-51 [2]) | normalised response (SK-BR-3 [3]) | normalised response (HDQ-P1 [4]) | normalised response (HCC1143 [5]) | normalised response (MFM-223 [6]) | normalised response (Hs578T [7]) | normalised response (BT-474 [8]) | normalised response (CAL-120 [9]) | normalised response (CAL-85-1 [10]) | normalised response (CAL-148 [11]) | normalised response (DU-4475 [12]) | normalised response (MDA-MB-468 [13]) | normalised response (MCF-10A) | normalised response (BT-549 [14]) | normalised response (HCC1937 [15]) | normalised response (MDA-MB-231 [16]) | normalised response (MDA-MB-453 [17]) | normalised response (HCC1599 [18]) | normalised viability (MDA-MB-436 [19]) | normalised viability (CAL-51 [20]) | normalised viability (SK-BR-3 [21]) | normalised viability (HDQ-P1 [22]) | normalised viability (HCC1143 [23]) | normalised viability (MFM-223 [24]) | normalised viability (Hs578T [25]) | normalised viability (BT-474 [26]) | normalised viability (CAL-120 [27]) | normalised viability (CAL-85-1 [28]) | normalised viability (CAL-148 [29]) | normalised viability (DU-4475 [30]) | normalised viability (MDA-MB-468 [31]) | normalised viability (BT-549 [32]) | normalised viability (HCC1937 [33]) | normalised viability (MDA-MB-231 [34]) | normalised viability (MDA-MB-453 [35]) | normalised viability (HCC1599 [36])
COc1cc2c(Oc3ccc(NC(=O)C4(C(=O)Nc5ccc(F)cc5)CC4)cc3F)ccnc2cc1OCCCN1CCOCC1 [Foretinib] (0.1 nM) | 107% | 74.1% | 107% | 105% | 99% | 102% | 89.5% | 105% | 100% | 100% | 109% | 102% | 108% | 97.2% | 104% | 99.2% | 99.7% | 109% | 93.4% | 95.8% | 91.8% | 89% | 75.8% | 100% | 97% | 110% | 99.9% | 92.1% | 90.2% | 107% | 100% | 101% | 94.6% | 101% | 102% | 95% | 98.9%
O=NN(CCCl)C(=O)NC1CCCCC1 [Lomustine] (1 nM) | 98.2% | 91.6% | 104% | 97.2% | 105% | 97.5% | 106% | 101% | 99.1% | 97.6% | 94.4% | 93.9% | 99.3% | 107% | 94.2% | 94.9% | 97.5% | 108% | 105% | 109% | 108% | 93.6% | 110% | 95.2% | 83.4% | 100% | 88% | 91.6% | 98.8% | 107% | 102% | 100% | 107% | 86.3% | 97.3% | 114% | 109%
O=C(c1cc(Cc2n[nH]c(=O)c3ccccc23)ccc1F)N1CCN(C(=O)C2CC2)CC1 [Olaparib] (1 nM) | 104% | 114% | 102% | 95.9% | 93.1% | 96.7% | 99.9% | 96.7% | 92.4% | 103% | 93% | 102% | 99% | 92.8% | 103% | 90.5% | 99.1% | 103% | 101% | 113% | 103% | 91.2% | 96.9% | 88.4% | 91% | 99.7% | 85.8% | 73.8% | 87.6% | 87.1% | 94.1% | 95.3% | 86% | 102% | 84.8% | 92.7% | 89.9%
COc1cc2c(N3CCN(C(=O)Nc4ccc(OC(C)C)cc4)CC3)ncnc2cc1OCCCN1CCCCC1 [Tandutinib] (0.1 nM) | 97.3% | 82.2% | 96.7% | 111% | 97.9% | 105% | 97.3% | 107% | 101% | 101% | 102% | 104% | 104% | 95.5% | 99.8% | 92.9% | 104% | 96.1% | 113% | 104% | 107% | 106% | 116% | 103% | 96.7% | 120% | 114% | 98.7% | 101% | 107% | 109% | 105% | 111% | 67.1% | 85.3% | 102% | 98%
